Laboratory results taken from ChEMBL document CHEMBL3751803, “Discovery of an in Vivo Tool to Establish Proof-of-Concept for MAP4K4-Based Antidiabetic Treatment” (ACS Med Chem Lett, 2015).
Converted amounts (≈) assume the structure as drawn.

Assays:
[1] = Passive permeability in MDCK2 cell with low efflux; type: ADME, cell-based, Canis lupus familiaris, MDCK-II; details: dog, MDCK
[2] = target: T1, Mitogen-activated protein kinase kinase kinase kinase 4 (Homo sapiens, UniProt O95819); experiment: Inhibition of recombinant human MAP4K4 catalytic domain in presence of 1 mM ATP by FRET assay
[3] = Lipophilicity, log D of the compound; type: physicochemical; details: octanol/water
[4] = target: T1, Mitogen-activated protein kinase kinase kinase kinase 4; experiment: Inhibition of recombinant human MAP4K4 catalytic domain in presence of 10 uM ATP (Km) by FRET assay
[5] = target: T1, Mitogen-activated protein kinase kinase kinase kinase 4; experiment: Inhibition of human MAP4K4 transfected in 293 MSR cells assessed as inhibition of phosphorylation of traf2 at ser/thr residue by ELISA; type: cell-based
CYP3A4 [6] = target: T2, CYP3A4 (Homo sapiens, UniProt P08684); experiment: Inhibition of CYP3A4 (unknown origin) at 3 uM; type: ADME
Salmonella typhimurium = experiment: Mutagenicity in Salmonella typhimurium by Ames test; type: toxicity, organism-based; details: salmonella enterica subsp. enterica serovar typhimurium
CYP2D6 = CYP2D6 (Homo sapiens, UniProt P10635); experiment: Inhibition of CYP2D6 (unknown origin) at 3 uM; type: ADME
CYP2C8 = target: T3, CYP2C8 (Homo sapiens, UniProt P10632); experiment: Inhibition of CYP2C8 (unknown origin) at 3 uM; type: ADME
T3 sequence (P10632 whole entry): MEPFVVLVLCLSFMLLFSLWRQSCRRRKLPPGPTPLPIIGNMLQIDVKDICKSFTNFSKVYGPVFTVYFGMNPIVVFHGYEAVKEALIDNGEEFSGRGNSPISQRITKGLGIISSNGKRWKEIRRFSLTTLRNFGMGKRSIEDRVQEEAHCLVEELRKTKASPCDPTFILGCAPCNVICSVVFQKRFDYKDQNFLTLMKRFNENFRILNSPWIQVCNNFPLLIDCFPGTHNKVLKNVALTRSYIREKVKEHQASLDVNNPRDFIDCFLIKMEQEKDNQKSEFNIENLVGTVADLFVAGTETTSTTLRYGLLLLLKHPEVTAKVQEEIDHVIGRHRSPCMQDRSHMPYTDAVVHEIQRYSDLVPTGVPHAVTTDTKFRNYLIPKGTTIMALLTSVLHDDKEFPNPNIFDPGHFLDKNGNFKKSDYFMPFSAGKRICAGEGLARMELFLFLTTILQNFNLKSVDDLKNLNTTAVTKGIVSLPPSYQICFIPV

CYP2C9 = CYP2C9 (Homo sapiens, UniProt P11712); experiment: Inhibition of CYP2C9 (unknown origin) at 3 uM; type: ADME
Epithelial cell = experiment: Cytotoxicity against human liver epithelial cells
CYP1A2 = target: T4, CYP1A2 (Homo sapiens, UniProt P05177); experiment: Inhibition of CYP1A2 (unknown origin) at 3 uM; type: ADME
T4 sequence (P05177 whole entry): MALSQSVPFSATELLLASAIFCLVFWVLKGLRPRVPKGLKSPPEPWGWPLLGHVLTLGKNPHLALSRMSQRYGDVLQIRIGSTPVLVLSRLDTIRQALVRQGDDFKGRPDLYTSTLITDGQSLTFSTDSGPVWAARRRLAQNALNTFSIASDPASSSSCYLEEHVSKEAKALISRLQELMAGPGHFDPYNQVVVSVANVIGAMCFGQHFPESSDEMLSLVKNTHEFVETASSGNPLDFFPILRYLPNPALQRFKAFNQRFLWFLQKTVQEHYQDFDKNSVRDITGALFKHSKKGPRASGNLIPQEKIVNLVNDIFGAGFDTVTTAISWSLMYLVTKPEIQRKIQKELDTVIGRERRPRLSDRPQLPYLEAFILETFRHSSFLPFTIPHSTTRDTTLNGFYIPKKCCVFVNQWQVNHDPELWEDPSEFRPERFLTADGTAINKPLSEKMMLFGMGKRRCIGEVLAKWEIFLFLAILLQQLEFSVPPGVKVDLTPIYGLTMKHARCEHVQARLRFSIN

CYP3A4 [7] = target: T2, CYP3A4; experiment: Time dependent inhibition of CYP3A4 (unknown origin) using midazolam as substrate at 30 uM; type: ADME; details: probe midazolam
CYP3A4 [8] = target: T2, CYP3A4; experiment: Time dependent inhibition of CYP3A4 (unknown origin) using midazolam as substrate at 60 uM; type: ADME; details: probe midazolam
Liver microsome = experiment: Unbound intrinsic clearance in human liver microsomes; type: ADME
[9] = Solubility of compound at pH 1.2; type: physicochemical; details: buffer
[10] = Solubility of compound at pH 6.5; type: physicochemical; details: buffer
[11] = target: Voltage-gated inwardly rectifying potassium channel KCNH2 (Homo sapiens, UniProt Q12809); experiment: Inhibition of human ERG transfected in HEK293 cells; type: cell-based
[12] = Fraction unbound in mouse plasma at 10 mg/kg, po; type: ADME, organism-based
Misshapen-like kinase 1 = Misshapen-like kinase 1 (Homo sapiens, UniProt Q8N4C8); experiment: Inhibition of MINK (unknown origin) in presence of ATP (Km)
Plasma = experiment: Plasma concentration in C57/Bl6 mouse at 15 mg/kg, po; type: ADME, organism-based, C57/BI6; details: in vivo
Mus musculus [13] = experiment: Inhibition of LPS-induced TNF-alpha level in C57/Bl6 mouse blood at 15 mg/kg, po administered 30 mins prior to LPS challenge measured after […]; type: functional; details: C57/BI6, Blood
[14] = target: TRAF2 and NCK-interacting protein kinase (Homo sapiens, UniProt Q9UKE5); experiment: Inhibition of TNIK (unknown origin) in presence of ATP (Km)
Cytochrome P450 1A2 = target: T5, Cytochrome P450 1A2 (Homo sapiens, UniProt P05177); experiment: Inhibition of CYP1A2 (unknown origin); type: ADME
T5 sequence (P05177 whole entry): T4 sequence (P05177 whole entry)

Mus musculus [15] = experiment: Decrease in blood glucose level in ob/ob mouse at 10 mg/kg, po bid for 4 weeks; type: functional; details: 672 h

T2 sequence (P08684 whole entry): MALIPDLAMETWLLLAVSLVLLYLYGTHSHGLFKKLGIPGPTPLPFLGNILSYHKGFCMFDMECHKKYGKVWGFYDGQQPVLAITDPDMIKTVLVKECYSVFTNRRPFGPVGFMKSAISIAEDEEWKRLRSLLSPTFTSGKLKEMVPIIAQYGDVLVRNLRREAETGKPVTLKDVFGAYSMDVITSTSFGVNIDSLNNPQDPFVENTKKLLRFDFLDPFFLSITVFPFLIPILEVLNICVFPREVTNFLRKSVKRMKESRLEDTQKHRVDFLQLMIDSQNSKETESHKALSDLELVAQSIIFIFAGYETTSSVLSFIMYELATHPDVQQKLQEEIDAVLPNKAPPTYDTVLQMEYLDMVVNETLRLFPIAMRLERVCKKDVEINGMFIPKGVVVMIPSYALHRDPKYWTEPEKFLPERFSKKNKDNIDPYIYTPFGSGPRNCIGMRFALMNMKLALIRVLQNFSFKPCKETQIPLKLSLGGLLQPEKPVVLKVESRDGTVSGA
T1 sequence (O95819 whole entry, the tested form may be a part): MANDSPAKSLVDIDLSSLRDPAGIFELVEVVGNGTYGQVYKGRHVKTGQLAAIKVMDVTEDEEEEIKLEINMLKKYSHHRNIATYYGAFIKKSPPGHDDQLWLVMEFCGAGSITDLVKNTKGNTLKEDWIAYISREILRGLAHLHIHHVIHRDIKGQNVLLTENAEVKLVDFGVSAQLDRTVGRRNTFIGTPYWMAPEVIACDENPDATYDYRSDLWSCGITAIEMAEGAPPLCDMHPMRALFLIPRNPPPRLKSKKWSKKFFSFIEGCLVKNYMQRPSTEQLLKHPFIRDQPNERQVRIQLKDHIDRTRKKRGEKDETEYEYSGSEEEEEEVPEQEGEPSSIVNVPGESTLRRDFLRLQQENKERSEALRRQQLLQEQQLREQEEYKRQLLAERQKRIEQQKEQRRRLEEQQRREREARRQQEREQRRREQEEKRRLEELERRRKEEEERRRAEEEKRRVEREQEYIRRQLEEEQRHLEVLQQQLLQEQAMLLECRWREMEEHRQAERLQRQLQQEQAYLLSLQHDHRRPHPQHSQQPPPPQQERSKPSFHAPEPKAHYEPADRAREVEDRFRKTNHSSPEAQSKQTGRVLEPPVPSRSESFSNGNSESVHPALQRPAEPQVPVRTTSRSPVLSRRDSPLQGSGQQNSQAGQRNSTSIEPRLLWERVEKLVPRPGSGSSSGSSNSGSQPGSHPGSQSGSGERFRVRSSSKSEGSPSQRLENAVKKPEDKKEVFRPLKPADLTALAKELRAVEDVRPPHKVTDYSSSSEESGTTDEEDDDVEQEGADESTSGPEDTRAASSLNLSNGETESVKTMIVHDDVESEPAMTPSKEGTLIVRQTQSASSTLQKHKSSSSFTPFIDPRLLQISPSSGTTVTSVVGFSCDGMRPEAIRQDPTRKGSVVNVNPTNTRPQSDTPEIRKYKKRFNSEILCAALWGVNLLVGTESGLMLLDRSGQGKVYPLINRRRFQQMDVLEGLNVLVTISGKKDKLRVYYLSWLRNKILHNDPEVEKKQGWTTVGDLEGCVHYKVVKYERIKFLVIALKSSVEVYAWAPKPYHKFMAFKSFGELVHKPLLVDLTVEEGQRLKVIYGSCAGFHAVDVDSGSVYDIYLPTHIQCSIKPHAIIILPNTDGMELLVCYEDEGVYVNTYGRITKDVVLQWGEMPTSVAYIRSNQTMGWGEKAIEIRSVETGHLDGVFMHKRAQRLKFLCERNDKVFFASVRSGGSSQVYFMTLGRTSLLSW
Sequence of CYP2D6 (P10635 whole entry): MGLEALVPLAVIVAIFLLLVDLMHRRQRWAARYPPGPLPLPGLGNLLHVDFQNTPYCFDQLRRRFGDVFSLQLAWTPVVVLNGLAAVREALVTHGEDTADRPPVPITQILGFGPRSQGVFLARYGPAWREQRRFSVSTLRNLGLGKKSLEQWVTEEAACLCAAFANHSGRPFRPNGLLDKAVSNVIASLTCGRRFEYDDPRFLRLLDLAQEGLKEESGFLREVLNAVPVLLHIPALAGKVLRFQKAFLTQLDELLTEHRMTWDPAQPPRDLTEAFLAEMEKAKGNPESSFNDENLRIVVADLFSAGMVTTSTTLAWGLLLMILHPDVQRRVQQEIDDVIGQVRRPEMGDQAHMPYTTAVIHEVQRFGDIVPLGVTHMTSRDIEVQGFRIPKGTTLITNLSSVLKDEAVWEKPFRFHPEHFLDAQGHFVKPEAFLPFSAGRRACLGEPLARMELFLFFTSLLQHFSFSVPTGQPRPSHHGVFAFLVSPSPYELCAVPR
Sequence of Voltage-gated inwardly rectifying potassium channel KCNH2 (Q12809 whole entry): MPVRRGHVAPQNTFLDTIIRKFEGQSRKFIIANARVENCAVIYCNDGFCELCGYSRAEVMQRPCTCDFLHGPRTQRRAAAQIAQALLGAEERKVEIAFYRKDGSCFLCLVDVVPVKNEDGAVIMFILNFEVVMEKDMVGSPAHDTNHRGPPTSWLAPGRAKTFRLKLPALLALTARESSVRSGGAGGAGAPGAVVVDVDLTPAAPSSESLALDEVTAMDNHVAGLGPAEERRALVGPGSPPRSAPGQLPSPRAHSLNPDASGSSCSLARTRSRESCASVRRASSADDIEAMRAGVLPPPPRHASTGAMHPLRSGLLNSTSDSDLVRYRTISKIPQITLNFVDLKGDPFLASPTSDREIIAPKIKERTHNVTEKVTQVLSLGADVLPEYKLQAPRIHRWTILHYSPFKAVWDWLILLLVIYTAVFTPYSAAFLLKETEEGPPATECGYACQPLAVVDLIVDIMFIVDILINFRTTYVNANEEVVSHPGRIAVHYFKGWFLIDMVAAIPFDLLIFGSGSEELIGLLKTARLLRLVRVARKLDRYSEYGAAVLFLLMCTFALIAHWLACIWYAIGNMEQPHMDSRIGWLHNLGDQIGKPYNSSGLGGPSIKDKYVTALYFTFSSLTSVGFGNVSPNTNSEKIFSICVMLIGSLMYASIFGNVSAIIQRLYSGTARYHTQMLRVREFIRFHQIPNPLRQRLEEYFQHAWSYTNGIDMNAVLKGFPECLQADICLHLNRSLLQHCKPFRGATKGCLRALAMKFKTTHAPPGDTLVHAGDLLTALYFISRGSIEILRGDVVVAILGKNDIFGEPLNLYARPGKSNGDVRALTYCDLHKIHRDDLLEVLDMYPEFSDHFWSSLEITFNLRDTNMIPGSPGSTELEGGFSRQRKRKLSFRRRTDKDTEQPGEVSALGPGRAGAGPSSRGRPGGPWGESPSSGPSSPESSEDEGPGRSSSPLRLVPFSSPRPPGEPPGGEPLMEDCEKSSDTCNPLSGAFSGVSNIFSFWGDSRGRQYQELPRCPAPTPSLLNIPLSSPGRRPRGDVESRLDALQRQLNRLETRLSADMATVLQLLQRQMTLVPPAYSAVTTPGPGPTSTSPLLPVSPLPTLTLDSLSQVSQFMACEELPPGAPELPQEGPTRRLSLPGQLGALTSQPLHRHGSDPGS
Sequence of CYP2C9 (P11712 whole entry): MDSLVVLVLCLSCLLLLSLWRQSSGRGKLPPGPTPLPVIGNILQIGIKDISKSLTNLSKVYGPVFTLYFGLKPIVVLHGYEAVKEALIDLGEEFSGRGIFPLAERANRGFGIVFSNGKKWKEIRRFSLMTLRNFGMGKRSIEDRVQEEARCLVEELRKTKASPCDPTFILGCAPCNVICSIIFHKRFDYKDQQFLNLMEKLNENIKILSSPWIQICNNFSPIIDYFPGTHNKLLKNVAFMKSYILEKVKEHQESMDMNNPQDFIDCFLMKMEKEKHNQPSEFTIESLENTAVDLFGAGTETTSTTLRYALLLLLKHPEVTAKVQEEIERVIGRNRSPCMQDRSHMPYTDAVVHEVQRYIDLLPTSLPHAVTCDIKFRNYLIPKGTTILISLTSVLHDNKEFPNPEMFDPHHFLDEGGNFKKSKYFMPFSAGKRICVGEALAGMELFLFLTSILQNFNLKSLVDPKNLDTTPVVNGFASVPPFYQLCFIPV

`NC(=O)c1ccc(-c2cncc(-c3ccc(OC4CC4)cc3)c2)cc1` showed a Papp [1] of 3.5 ×10⁻⁶ cm/s.
With `NC(=O)c1ccc(-c2ncc(-c3ccc(Cl)cc3)o2)cc1` the IC50 [2] was > 10000 nM, the logD [3] was 3.6 and the IC50 [4] was 94 nM. It also gave an IC50 [5] of 6300 nM.
Compound `NC(=O)c1ccc(-c2cc(-c3ccc(Cl)cc3)ccn2)cc1` has a Papp [1] of 4.4 ×10⁻⁶ cm/s.
With `COc1ccc(-c2cncc(-c3ccc(C(N)=O)cc3)c2)cc1` the Papp [1] was 8.7 ×10⁻⁶ cm/s.
`Cn1c(-c2ccc(Cl)cc2)cnc1-c1ccc(C(N)=O)cc1` gave a Papp [1] of 15.6 ×10⁻⁶ cm/s.
`NC(=O)c1ccc(-c2cn(-c3ccc(Cl)cc3)cn2)cc1` gave a Papp [1] of 2.9 ×10⁻⁶ cm/s.
For `Nc1ncc(-c2cnc(N)c(-c3ccc(Cl)cc3)c2)cn1`, the inhibition at 3 µM (CYP3A4 [6]) was < 15%, the Activity (Salmonella typhimurium) was “Non-toxic” and the inhibition at 3 µM (CYP2D6) was < 15%. For the same compound, the inhibition at 3 µM (CYP2C8) was < 15%, the inhibition at 3 µM (CYP2C9) was < 15% and the IC50 (Epithelial cell) was > 300000 nM. The inhibition at 3 µM (CYP1A2) was < 15%, the inhibition at 30 µM (CYP3A4 [7]) was 8% and the inhibition at 60 µM (CYP3A4 [8]) was 24%. It also gave a CL free (Liver microsome) of 13 mL/min/kg, a solubility ([9]; read-out: solubility) of 3960 µg/mL (≈ 13.3 mM) and a solubility [10] of 2 µg/mL (≈ 0.00672 mM). The IC50 [11] was > 10000 nM.
For `CS(=O)(=O)c1ccc(-c2cc(-c3ccc(O)cc3)cnc2N)cc1`, the Papp [1] was 17.2 ×10⁻⁶ cm/s.
Work on `CS(=O)(=O)c1ccc(-c2cc(-c3ccc(C(N)=O)cc3)cnc2N)cc1` yielded a Papp [1] of 6.7 ×10⁻⁶ cm/s.
In the case of `Nc1ccc(-c2cnc(N)c(-c3ccc(Cl)cc3)c2)cn1`, the inhibition at 3 µM (CYP3A4 [6]) is reported as < 15%, the fraction unbound [12] is reported as 0.038 and the IC50 (Misshapen-like kinase 1) is reported as 8 nM. The Cp (Plasma) was 439 ng/mL, the Activity (Salmonella typhimurium) was “Toxic” and the inhibition at 3 µM (CYP2D6) was < 15%. For the same compound, the inhibition at 3 µM (CYP2C8) was < 15%, the inhibition in vivo at 15 mg/kg (Mus musculus [13]) was > 90% and the inhibition at 3 µM (CYP2C9) was < 15%. The IC50 (Epithelial cell) was > 119000 nM, the inhibition at 30 µM (CYP3A4 [7]) was 54% and the inhibition at 60 µM (CYP3A4 [8]) was 61%. It also gave an IC50 [14] of 15 nM, an IC50 (Cytochrome P450 1A2) of 3000 nM and a CL free (Liver microsome) of 89 mL/min/kg. For the same compound, the solubility [9] was 13000 µg/mL (≈ 43.8 mM), the Papp [1] was 7.1 ×10⁻⁶ cm/s and the IC50 [4] was 3.7 nM. The solubility [10] was 5800 µg/mL (≈ 19.5 mM), the IC50 [11] was 1800 nM and the IC50 [5] was 160 nM. The inhibition in vivo at 10 mg/kg (Mus musculus [15]) was 44%.
`NC(=O)c1ccc(-c2cncc(-c3ccc(Cl)cc3)c2)cc1` showed a Papp [1] of 8.7 ×10⁻⁶ cm/s.
For `NC(=O)c1ccc(-n2cc(-c3ccc(Cl)cc3)cn2)cc1`, the IC50 [2] was > 10000 nM, the IC50 [4] was 248 nM and the IC50 [5] was > 30000 nM.
In the case of `Nc1ncc(-c2cc[nH]c(=O)c2)cc1-c1ccc(Cl)cc1`, the Papp [1] is reported as 15.7 ×10⁻⁶ cm/s.
